Measured values as given in US12139499B2, “Heteroaryl compounds for treating Huntington's disease” (PTC THERAPEUTICS, INC., priority 2018, dated 2024).

system: Endogenous Huntingtin Protein; experiment: Endogenous Huntingtin Protein Assay (ELISA-based MSD electrochemiluminescence); type: cell-based; details: Table 1
Method in brief: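 Sandwich MSD electrochemiluminescence immunoassay. Capture used MW1 (expanded polyglutamine) or MAB2166 antibody coated at 1 μg/mL overnight at 4 °C. Samples were bound overnight at 4 °C, then a rabbit monoclonal detection antibody and SULFO-TAG anti-rabbit, each at 0.25 μg/mL, were applied for 1 h at room temperature.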

Row | Structure (SMILES) | IC50 [µM]
1 | Cc1cn2nc(-c3cc(F)c4nc(N(C)C5CCN[C@@H](C)C5)sc4c3)cc(C)c2n1 (stereo partly drawn) [Compound 165, 6-(2,8-dimethylimidazo[1,2-b]pyridazin-6-yl)-4-fluoro-N-methyl-N-[(2S)-2-methylpiperidin-4-yl]-1,3-benzothiazol-2-amine] | ≤ 0.1
2 | Cc1cn2cc(-c3cc(F)c4nc(N(C)C5CCNCC5)sc4c3)cc2c(C)n1 [Compound 225, 6-(1,3-dimethylpyrrolo[1,2-a]pyrazin-7-yl)-4-fluoro-N-methyl-N-(piperidin-4-yl)-1,3-benzothiazol-2-amine] | ≤ 0.1
3 | CN1CCC(c2nc3ccc(-c4ccc5nn(C)cc5c4)cc3s2)CC1 [Compound 9, 6-(2-methyl-2H-indazol-5-yl)-2-(1-methylpiperidin-4-yl)-1,3-benzothiazole] | 1 to 3
4 | Cc1cn2nc(-c3ccc4nc(C5CCNCC5)sc4c3)ccc2n1 [Compound 97, 2-methyl-6-[2-(piperidin-4-yl)-1,3-benzothiazol-6-yl]imidazo[1,2-b]pyridazine] | ≤ 0.1
5 | CN(c1nc2ncc(-c3ccc(-c4cn[nH]c4)c(F)c3F)nc2s1)C1CC(C)(C)NC(C)(C)C1 [Compound 161, 6-[2,3-difluoro-4-(1H-pyrazol-4-yl)phenyl]-N-methyl-N-(2,2,6,6-tetramethylpiperidin-4-yl)[1,3]thiazolo[4,5-b]pyrazin-2-amine] | 1 to 3
6 | CN1CC[C@@H]2[C@@H](CCN2c2nc3nnc(-c4ccc(-c5cn[nH]c5)cc4O)cc3s2)C1 [Compound 347, 2-{6-[(3aS,7aR)-5-methyloctahydro-1H-pyrrolo[3,2-c]pyridin-1-yl][1,3]thiazolo[4,5-c]pyridazin-3-yl}-5-(1H-pyrazol-4-yl)phenol] | 1 to 3
7 | Cc1cn2cc(-c3ccc4nc(C5CCNCC5)sc4c3)ccc2n1 [Compound 82, 6-(2-methylimidazo[1,2-a]pyridin-6-yl)-2-(piperidin-4-yl)-1,3-benzothiazole] | 0.1 to 0.5
8 | Cc1cn2cc(-c3cc(F)c4nc(C5CCNCC5)sc4c3)cc(F)c2n1 [Compound 152, 4-fluoro-6-(8-fluoro-2-methylimidazo[1,2-a]pyridin-6-yl)-2-(piperidin-4-yl)-1,3-benzothiazole] | ≤ 0.1
9 | CCc1cc(-c2ccc3nc(N(C)C4CC(C)(C)NC(C)(C)C4)sc3c2)cn2cc(C)nc12 [Compound 93, 6-(8-ethyl-2-methylimidazo[1,2-a]pyridin-6-yl)-N-methyl-N-(2,2,6,6-tetramethylpiperidin-4-yl)-1,3-benzothiazol-2-amine] | 0.1 to 0.5
10 | Cc1cc(-c2cc3sc(C4CCNCC4)nc3cn2)cc2cn(C)nc12 [Compound 59, 6-(2,7-dimethyl-2H-indazol-5-yl)-2-(piperidin-4-yl)[1,3]thiazolo[4,5-c]pyridine] | 0.1 to 0.5
11 | CN1CCC(Nc2nc3nnc(-c4ccc(-c5cn[nH]c5)cc4O)cc3s2)C1 (stereo not shown) [Compound 373, 2-{6-[(1-methylpyrrolidin-3-yl)amino][1,3]thiazolo[4,5-c]pyridazin-3-yl}-5-(1H-pyrazol-4-yl)phenol] | ≤ 0.1
12 | Cc1cc(-c2cnc3nc(NC4CCNCC4)sc3c2)cc2cn(C)nc12 [Compound 14, 6-(2,7-dimethyl-2H-indazol-5-yl)-N-(piperidin-4-yl)[1,3]thiazolo[4,5-b]pyridin-2-amine] | 1 to 3
13 | CN(c1nc2cnc(-c3cc(C#N)c4nn(C)cc4c3)cc2s1)C1CC2CCCC(C1)N2C (stereo not shown) [Compound 272, 2-methyl-5-{2-[methyl(9-methyl-9-azabicyclo[3.3.1]non-3-yl)amino][1,3]thiazolo[4,5-c]pyridin-6-yl}-2H-indazole-7-carbonitrile] | 0.1 to 0.5
14 | CN(C)[C@H]1CC[C@H](N(C)c2nc3nnc(-c4ccc(-c5cn[nH]c5)cc4O)cc3s2)CC1 [Compound 351, 2-(6-{[(1r,4r)-4-(dimethylamino)cyclohexyl](methyl)amino][1,3]thiazolo[4,5-c]pyridazin-3-yl)-5-(1H-pyrazol-4-yl)phenol] | 1 to 3
15 | CN(c1nc2cnc(-c3cc(C#N)c4nn(C)cc4c3)nc2s1)C1CC2CCC(C1)N2 (stereo not drawn) [Compound 208, 5-{2-[(3-exo)-8-azabicyclo[3.2.1]oct-3-yl(methyl)amino][1,3]thiazolo[5,4-d]pyrimidin-5-yl}-2-methyl-2H-indazole-7-carbonitrile] | ≤ 0.1
16 | Cc1cn2cc(-c3cnc4nc(N5CCNCC5)sc4n3)cc(C#N)c2n1 [Compound 173, 2-methyl-6-[2-(piperazin-1-yl)[1,3]thiazolo[4,5-b]pyrazin-6-yl]imidazo[1,2-a]pyridine-8-carbonitrile] | 1 to 3
17 | Cn1cc2cc(-c3cc(F)c4nc(OC5CCNCC5)sc4c3)cc(F)c2n1 [Compound 307, 4-fluoro-6-(7-fluoro-2-methyl-2H-indazol-5-yl)-2-[(piperidin-4-yl)oxy]-1,3-benzothiazole] | ≤ 0.1

Row | Structure (SMILES) | IC50 [µM]
18 | Oc1cc(-c2cn[nH]c2)ccc1-c1nc2cnc(C3=CCNCC3)cc2s1 [Compound 335, 5-(1H-pyrazol-4-yl)-2-[6-(1,2,3,6-tetrahydropyridin-4-yl)[1,3]thiazolo[4,5-c]pyridin-2-yl]phenol] | 1 to 3
19 | Cc1cn2cc(-c3ncc4nc(N(C)C5CC(C)(C)NC(C)(C)C5)sc4n3)cc(C#N)c2n1 [Compound 170, 2-methyl-6-{2-[methyl(2,2,6,6-tetramethylpiperidin-4-yl)amino][1,3]thiazolo[5,4-d]pyrimidin-5-yl}imidazo[1,2-a]pyridine-8-carbonitrile] | ≤ 0.1
20 | CN(c1nc2ccc(-c3cc(F)c4nn(C)cc4c3)cc2s1)C1CC(C)(C)NC(C)(C)C1 [Compound 57, 6-(7-fluoro-2-methyl-2H-indazol-5-yl)-N-methyl-N-(2,2,6,6-tetramethylpiperidin-4-yl)-1,3-benzothiazol-2-amine] | ≤ 0.1
21 | Cc1cn2cc(-c3cc4sc(NC5CC6CCC(C5)N6)nc4cn3)cc(F)c2n1 (stereo not drawn) [Compound 212, N-[(3-exo)-8-azabicyclo[3.2.1]oct-3-yl]-6-(8-fluoro-2-methylimidazo[1,2-a]pyridin-6-yl)[1,3]thiazolo[4,5-c]pyridin-2-amine] | ≤ 0.1
22 | CN(c1nc2nnc(-c3ccc(-c4cn[nH]c4)cc3O)cc2s1)C1CCN(CCF)CC1 [Compound 384, 2-(6-{[1-(2-fluoroethyl)piperidin-4-yl](methyl)amino}[1,3]thiazolo[4,5-c]pyridazin-3-yl)-5-(1H-pyrazol-4-yl)phenol] | ≤ 0.1
23 | CN1[C@@H]2CC[C@H]1C[C@H](Nc1nc3cnc(-c4cc(F)c5nn(C)cc5c4)cc3s1)C2 [Compound 246, 6-(7-fluoro-2-methyl-2H-indazol-5-yl)-N-[(3-exo)-8-methyl-8-azabicyclo[3.2.1]oct-3-yl][1,3]thiazolo[4,5-c]pyridin-2-amine] | 1 to 3
24 | Cn1cc2cc(-c3ccc4nc(N5CCC(N)CC5)sc4c3)ccc2n1 [Compound 29, 1-[6-(2-methyl-2H-indazol-5-yl)-1,3-benzothiazol-2-yl]piperidin-4-amine] | 1 to 3
25 | Cc1cn2nc(-c3cc(F)c4nc(C5CCN6CCCC6C5)sc4c3)ccc2n1 (stereo not shown) [Compound 166, 6-[4-fluoro-2-(octahydroindolizin-7-yl)-1,3-benzothiazol-6-yl]-2-methylimidazo[1,2-b]pyridazine] | ≤ 0.1
26 | CN(c1nc2nnc(-c3ccc(-c4cn[nH]c4)cc3O)cc2s1)[C@@H]1CCCNC1 [Compound 348, 2-(6-{methyl[(3R)-piperidin-3-yl]amino}[1,3]thiazolo[4,5-c]pyridazin-3-yl)-5-(1H-pyrazol-4-yl)phenol] | 0.1 to 0.5
27 | CC1CC(N(C)c2nc3ccc(-c4ccc5nn(C)cc5c4)cc3s2)CC(C)N1 (stereo not shown) [Compound 176, N-(2,6-dimethylpiperidin-4-yl)-N-methyl-6-(2-methyl-2H-indazol-5-yl)-1,3-benzothiazol-2-amine] | ≤ 0.1
28 | Cc1nc2c(C)cc(-c3cc(F)c4nc([C@H]5C[C@@H](C)N[C@@H](C)C5)sc4c3)nc2o1 [Compound 359, 5-{2-[(2R,4r,6S)-2,6-dimethylpiperidin-4-yl]-4-fluoro-1,3-benzothiazol-6-yl}-2,7-dimethyl[1,3]oxazolo[5,4-b]pyridine] | ≤ 0.1
29 | Cc1cn2cc(-c3ncc4nc(N(C)C5CC6(C)CC[C@](C)(C5)N6)sc4n3)cc(C#N)c2n1 (stereo partly drawn) [Compound 255, 6-(2-{[(1R)-1,5-dimethyl-8-azabicyclo[3.2.1]oct-3-yl](methyl)amino}[1,3]thiazolo[5,4-d]pyrimidin-5-yl)-2-methylimidazo[1,2-a]pyridine-8-carbonitrile] | ≤ 0.1
30 | CN(c1ccc2nc(-c3ccc4nn(C)cc4c3)sc2c1)C1CCNCC1 [Compound 11, N-methyl-2-(2-methyl-2H-indazol-5-yl)-N-(piperidin-4-yl)-1,3-benzothiazol-6-amine] | 1 to 3
31 | CN(c1nc2ncc(-c3ccc(-c4cn[nH]c4)cc3O)nc2s1)C1CC(C)(C)NC(C)(C)C1 [Compound 130, 2-{2-[methyl(2,2,6,6-tetramethylpiperidin-4-yl)amino][1,3]thiazolo[4,5-b]pyrazin-6-yl}-5-(1H-pyrazol-4-yl)phenol] | ≤ 0.1
32 | Cc1cn2nc(-c3cc(F)c4nc(N(C)C5CCN[C@@H](C)C5)sc4c3)ccc2n1 (stereo partly drawn) [Compound 164, 4-fluoro-N-methyl-6-(2-methylimidazo[1,2-b]pyridazin-6-yl)-N-[(2S)-2-methylpiperidin-4-yl]-1,3-benzothiazol-2-amine] | ≤ 0.1
33 | Cc1cn2nc(-c3cc(F)c4nc(C5CCNCC5)sc4c3)cc(N(C)C)c2n1 [Compound 168, 6-[4-fluoro-2-(piperidin-4-yl)-1,3-benzothiazol-6-yl]-N,N,2-trimethylimidazo[1,2-b]pyridazin-8-amine] | ≤ 0.1
34 | Cc1cn2cc(-c3cc4sc(N(C)C5CC(C)(C)NC(C)(C)C5)nc4cn3)cc2c(C)n1 [Compound 297, 6-(1,3-dimethylpyrrolo[1,2-a]pyrazin-7-yl)-N-methyl-N-(2,2,6,6-tetramethylpiperidin-4-yl)[1,3]thiazolo[4,5-c]pyridin-2-amine] | ≤ 0.1
